Reference: patent US9242984B2, “Pyrazolyl derivatives as Syk inhibitors” (Merck Sharp & Dohme Corp., priority 2012, dated 2016)
Read-outs that look alike come from different tables or passages of the source.

Molecular target: T1, recombinant human Syk (GST-hSyk fusion protein) (Homo sapiens, UniProt P43405)
T1 construct: purchased Carna Biosciences 08-176
Assay: Homogeneous Time-Resolved Fluorescence (HTRF) assay for the recombinant human Syk enzyme
Assay type: biochemical
Conditions: 10-dose titration, 25 μM ATP
Method in brief: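 IC50 came from a four-parameter fit over ten doses, 10 μM to 0.508 nM, with HTRF read-out (Eu-anti-pTyr antibody, SA-APC, EDTA stop, 30 min). The enzyme, 5 pM GST-hSyk, met compound for 10 min, then phosphorylated 250 nM biotin-peptide with 25 μM ATP and 5 mM Mg for 45 min at room temperature, pH 7.5.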

[1] = IC50 class, read-out: rhSYK Activity

IC50 [1] | IC50 (read-out: rhSYK IC50) | Compound
≤ 100 nM | – | Cc1cc(Nc2nccc(C(F)(F)F)n2)cc(-c2cnn(CC3(O)CCC(C(=O)O)C(C)(C)C3)c2)c1 (stereo not shown) [Example 12.6, 4-hydroxy-2,2-dimethyl-4-{[4-(3-methyl-5-{[4-(trifluoromethyl)pyrimidin-2-yl]amino}phenyl)-1H-pyrazol-1-yl]methyl}-cyclohexanecarboxylic acid]
100 to 1000 nM | – | Cc1ccnc(Nc2cccc(-c3cnn(CC4CNC(=O)O4)c3)c2)n1 (stereo not shown) [Example 2.16, 5-[(4-{3-[(4-methylpyrimidin-2-yl)amino]phenyl}-1H-pyrazol-1-yl)methyl]-1,3-oxazolidin-2-one]
≤ 100 nM | – | Cc1cc(Nc2nccc(C3CC3)n2)cc(-c2cnn(CCC(N)=O)c2)c1 [Example 2.14, 3-(4-{3-[(4-cyclopropylpyrimidin-2-yl)amino]-5-methylphenyl}-1H-pyrazol-1-yl)propanamide]
100 to 1000 nM | – | Cc1cc(Nc2nccc(C(F)(F)F)n2)cc(-c2cnn(C[C@H](O)C(=O)NCCCN3CCCC3=O)c2)c1 [Example 6.10, (2S)-2-hydroxy-3-[4-(3-methyl-5-{[4-(trifluorometh-yl)pyrimidin-2-yl]amino}phenyl)-1H-pyrazol-1-yl]-N-[3-(2-oxopyrrolidin-1-yl)propyl]propan-amide]
≤ 100 nM | – | Cc1cc(Nc2cc(C(F)(F)F)ccn2)nc(-c2cnn3c2CCC3)c1 [Example 1.15, 6-(5,6-dihydro-4H-pyrrolo[1,2-b]pyrazol-3-yl)-4-methyl-N-[4-(trifluoromethyl)pyridin-2-yl]pyridin-2-amine]
≤ 100 nM | – | Cc1cc(Nc2nccc(C(F)F)n2)cc(-c2cnn(CC3(C)CNC(=O)C3)c2)c1 (stereo not shown) [Example 2.80, 4-{[4-(3-{[4-(difluoromethyl)pyrimidin-2-yl]amino}-5-methylphenyl)-1H-pyrazol-1-yl]methyl}-4-methylpyrrolidin-2-one]
≤ 100 nM | – | Cc1cc(Nc2cc(C(F)F)ccn2)nc(-c2cnn(CC3(O)CCC3)c2)c1 [Example 29.2, 1-{[4-(6-{[4-(difluoromethyl)pyridin-2-yl]amino}-4-methylpyridin-2-yl)-1H-pyrazol-1-yl]methyl}cyclobutanol]
≤ 100 nM | – | Cc1cc(Nc2nccc(C(F)(F)F)n2)cc(-c2cnn(CCC3CCCN3)c2)c1 (stereo not shown) [Example 13.2, N-{3-methyl-5-[1-(2-pyrrolidin-2-ylethyl)-1H-pyrazol-4-yl]phenyl}-4-(trifluoro-methyl)-pyrimidin-2-amine]
≤ 100 nM | – | Cc1cc(Nc2nccc(C(F)(F)F)n2)cc(-c2cnn(CCNC(N)=O)c2)c1 [Example 3.16, 1-{2-[4-(3-methyl-5-{[4-(trifluoromethyl)-pyrimidin-2-yl]-amino}phenyl)-1H-pyrazol-1-yl]ethyl}urea]
≤ 100 nM | – | Cc1cc(Nc2nccc(C(F)(F)F)n2)cc(-c2cnn(C3CCNC(=O)CC3)c2)c1 (single isomer, unassigned) [14 (isomer 1)]
≤ 100 nM | 3.6 nM | Cc1cc(Nc2nccc(C(F)F)n2)cc(-c2cnn(C3CCC(O)C3(C)O)c2)c1 (stereo not shown) [Example 22.13, 5-[4-(3-{[4-(difluoromethyl)pyrimidin-2-yl]amino}-5-methylphenyl)-1H-pyrazol-1-yl]-1-methylcyclopentane-1,2-diol]
≤ 100 nM | – | Cc1cc(Nc2ncc(F)c(C(F)F)n2)cc(-c2cnn(CC(C)(O)CC#N)c2)c1 (stereo not shown) [Example 20.6, 4-[4-(3-{[4-(difluoromethyl)-5-fluoropyrimidin-2-yl]amino}-5-methylphenyl)-1H-pyrazol-1-yl]-3-hydroxy-3-methylbutanenitrile]
≤ 100 nM | – | Cc1cc(Nc2nccc(C(F)F)n2)cc(-c2cnn(C(C[C@H](C)O)[C@@H](C)O)c2)c1 (stereo in doubt) [Example 2.53, 3-[4-(3-{[4-(difluoromethyl)pyrimidin-2-yl]amino}-5-methylphenyl)-1H-pyrazol-1-yl]hexane-2,5-diol]
≤ 100 nM | – | Cc1cc(Nc2nccc(C(F)(F)F)n2)cc(-c2cnn(C[C@@H](O)C(=O)O)c2)c1 [Example 5.16, (2R)-2-hydroxy-3-[4-(3-methyl-5-{[4-(trifluoromethyl)-pyrimidin-2-yl]amino}phenyl)-1H-pyrazol-1-yl]propanoic acid]
≤ 100 nM | 6.7 nM | Cc1cc(Nc2nccc(C(F)F)n2)cc(-c2cnn(C3CC(C)(C)CC(C)(O)C3O)c2)c1 (stereo not shown) [Example 22.10]
≤ 100 nM | 1 nM | Cc1cc(Nc2nccc(C(F)(F)F)n2)cc(-c2cnn(CC(C)(O)C(N)=O)c2)c1 (single isomer, unassigned) [Example 8.1, (R or S) 2-hydroxy-2-methyl-3-[4-(3-methyl-5-{[4-(trifluoromethyl)pyrimidin-2-yl]amino}phenyl)-1H-pyrazol-1-yl]propanamide]

IC50 [1] | IC50 (read-out: rhSYK IC50) | Compound
≤ 100 nM | – | Cc1cc(Nc2nccc(C(F)(F)F)n2)cc(-c2cnn(CC(C)(O)CO)c2)c1 (single isomer, unassigned) [Example 21.2, 2-Methyl-3-(4-(3-methyl-5-((4-(trifluoromethyl)pyrimidin-2-yl)amino)phenyl)-1H-pyrazol-1-yl)propane-1,2-diol]
≤ 100 nM | 7.4 nM | Cc1cc(Nc2nccc(C(F)(F)F)n2)cc(-c2cnn(C3CCCC(O)C3O)c2)c1 (single isomer, unassigned) [Example 10.1, (R or S) 3-[4-(3-methyl-5-{[4-(trifluoromethyl)pyrimidin-2-yl]amino}phenyl)-1H-pyrazol-1-yl]cyclohexane-1,2-diol]
≤ 100 nM | 65.8 nM | Cc1cc(Nc2nccc(C(F)(F)F)n2)cc(-c2cnn3ccccc23)c1 [Example 1.1, N-(3-methyl-5-(pyrazolo[1,5-a]pyridin-3-yl)phenyl)-4-(trifluoromethyl)pyrimidin-2-amine]
≤ 100 nM | – | CCOC(=O)CCn1cc(-c2cc(C)cc(Nc3cc(C4CC4)ccn3)n2)cn1 [Example 1.17, ethyl 3-(4-{6-[(4-cyclopropylpyridin-2-yl)amino]-4-methylpyridin-2-yl}-1H-pyrazol-1-yl)propanoate]
≤ 100 nM | – | Cc1cc(Nc2nccc(C(F)(F)F)n2)cc(-c2cnn(Cc3noc(C)n3)c2)c1 [Example 3.10, N-(3-methyl-5-{1-[(5-methyl-1,2,4-oxadiazol-3-yl)methyl]-1H-pyrazol-4-yl}phenyl)-4-(trifluoromethyl)-pyrimidin-2-amine]
≤ 100 nM | – | Cc1cc(Nc2nccc(C(F)F)n2)cc(-c2cnn(CC3OC(=O)NC3CO)c2)c1 (single isomer, unassigned) [Example 33.2, 5-{[4-(3-{[4-(difluoromethyl)pyrimidin-2-yl]amino}-5-methylphenyl)-1H-pyrazol-1-yl]methyl}-4-(hydroxymethyl)-1,3-oxazolidin-2-one]
≤ 100 nM | – | Cc1cc(Nc2nccc(C3CC3)n2)cc(-c2cnn(CC3CNC(=O)O3)c2)c1 (stereo not shown) [Example 2.33, 5-[(4-{3-[(4-cyclopropylpyrimidin-2-yl)amino]-5-methylphenyl}-1H-pyrazol-1-yl)methyl]-1,3-oxazolidin-2-one]
≤ 100 nM | 22.1 nM | COc1ccnc(Nc2cc(C)cc(-c3cnn(CCC(=O)O)c3)c2)n1 [Example 2.1, 3-(4-(3-((4-methoxypyrimidin-2-yl)amino)-5-methylphenyl)-1H-pyrazol-1-yl)propanoic acid]
≤ 100 nM | – | Cc1ccnc(Nc2cc(C)cc(-c3cnn(CC4(O)CCC4)c3)n2)c1 [Example 29.3, 1-[(4-{4-methyl-6-[(4-methylpyridin-2-yl)amino]pyridin-2-yl}-1H-pyrazol-1-yl)methyl}cyclobutanol]
≤ 100 nM | – | Cc1cc(Nc2nccc(C(F)(F)F)n2)cc(-c2cnn(C[C@H](O)C(=O)O)c2)n1 [Example 11.18, (2S)-2-hydroxy-3-[4-(6-methyl-4-{[4-(trifluoro-methyl)pyrimidin-2-yl]amino}pyridin-2-yl)-1H-pyrazol-1-yl]propanoic acid]
100 to 1000 nM | – | Cc1cc(Nc2nccc(C(F)(F)F)n2)cc(-n2cc(C3(O)CCC(C(=O)O)C(C)(C)C3)cn2)c1 (stereo not shown) [Example 19.15, 4-hydroxy-2,2-dimethyl-4-[1-(3-methyl-5-{[4-(trifluoromethyl)pyrimidin-2-yl]amino}phenyl)-1H-pyrazol-4-yl]cyclohexanecarboxylic acid]
≤ 100 nM | – | Cc1cc(Nc2nccc(C(F)(F)F)n2)cc(-c2cnn(CC(C)(O)C(N)=O)c2)c1 (single isomer, unassigned) [Example 8.3, 2-hydroxy-2-methyl-3-[4-(3-methyl-5-{[4-(trifluorometh-yl)pyrimidin-2-yl]amino}phenyl)-1H-pyrazol-1-yl]propanamide]
≤ 100 nM | – | Cc1cc(Nc2nccc(C(F)(F)F)n2)cc(-c2cnn(CC(O)c3ccc(C(N)=O)cc3)c2)c1 (stereo not shown) [Example 8.24, 4-{1-hydroxy-2-[4-(3-methyl-5-{[4-(trifluorometh-yl)pyrimidin-2-yl]amino}-phenyl)-1H-pyrazol-1-yl]ethyl}-benzamide]
≤ 100 nM | 31.2 nM | Cc1cc(Nc2nccc(C(F)(F)F)n2)cc(-c2cnn(CC3CN(C)C(=O)O3)c2)c1 (single isomer, unassigned) [Example 3.1, 3-methyl-5-{[4-(3-methyl-5-{[4-(trifluoromethyl)pyrimidin-2-yl]amino}phenyl)-1H-pyrazol-1-yl]methyl}-1,3-oxazolidin-2-one]
≤ 100 nM | – | Cc1cc(Nc2nccc(C(F)F)n2)cc(-c2cnn(CC(O)CC(C)O)c2)c1 (stereo not shown) [Example 5.29, 1,3,5-trideoxy-1-[4-(3-{[4-(difluoromethyl)pyrimidin-2-yl]amino}-5-methylphenyl)-1H-pyrazol-1-yl]pentitol]
≤ 100 nM | – | 4-{[4-(6-{[4-(difluoromethyl)pyridin-2-yl]amino}-4-methylpyridin-2-yl)-1H-pyrazol-1-yl]methyl}pyrrolidin-2-one [Example 1.35]

Compound | IC50 [1] | IC50 (read-out: rhSYK IC50)
6-methyl-2-pyrazolo-[1,5-a]pyridin-3-yl-N-[4-(trifluoromethyl)-pyridin-2-yl]pyrimidin-4-amine [Example 1.42] | ≤ 100 nM | –
